From patent US9409952B2, “Peptide-compound cyclization method” (Chugai Seiyaku Kabushiki Kaisha, priority 2011, dated 2016)
Starred links: 1 amine or outer side, 2 acyl side, 3 side chain; linkers in the order of their positions; H or OH if unused. Positions of bridges follow the written chain, without caps; N, C: chain ends. Non-standard residues stand in square brackets, D forms with d. Residues, ends and D or L forms follow the SMILES beside them. *: point of attachment. Phe(4-(CH2)5CO) = O=C([C@H](Cc1ccc(CCCCCC(=O)[*:3])cc1)N[*:1])[*:2]; Phe(3-(CH2)4CO) = O=C([C@H](Cc1cccc(CCCCC(=O)[*:3])c1)N[*:1])[*:2]; NEtPhe = CCN[C@@H](Cc1ccccc1)C(=O)O; NMeF = CN[C@@H](Cc1ccccc1)C(=O)O; NMeI = CC[C@H](C)[C@H](NC)C(=O)O; hPhe = N[C@@H](CCc1ccccc1)C(=O)O; NMeL = CN[C@@H](CC(C)C)C(=O)O; NMeV = CN[C@H](C(=O)O)C(C)C; NMeA = CN[C@@H](C)C(=O)O; Piperidide = C1CCN(*)CC1; dNMeA = CN[C@H](C)C(=O)O; β3hA = C[C@H](N)CC(=O)O; Sar = CNCC(=O)O; tBu = CC(C)(C)*

Test: Metabolic stability in human hepatic microsome
Assay type: in vitro ADME
Conditions: human, microsomes, pH 7.4, CL NADPH(+)
With CC[C@H](C)[C@@H]1NC(=O)[C@H](CC(C)C)N(C)C(=O)[C@H](CC(C)C)N(C)C(=O)[C@H](C)NC(=O)[C@H](CC(C)C)N(C)C(=O)[C@H](Cc2ccccc2)NC(=O)[C@H]([C@@H](C)O)NC(=O)[C@H](CC(C)C)N(C)C(=O)[C@H](CC(C)C)N(C)C(=O)[C@H](C)N(C)C(=O)C[C@H](C)NC1=O [DP-772] (cyclo(A[NMeL][NMeL]I[β3hA][NMeA][NMeL][NMeL]TF[NMeL])) the microsomal CLint at 1 uM was 153 µL/min/mg.

Same assay, conditions: microsomes, pH 7.4; human hepatic microsome, NADPH(+); read-out: CL NADPH(+)
CCN1C(=O)[C@H](C)NC(=O)[C@H](Cc2ccccc2)N(C)C(=O)[C@H](CC(C)C)N(C)C(=O)[C@H](CC(C)C)NC(=O)[C@@H](C)N(C)C(=O)C[C@@H](C(=O)N2CCCCC2)NC(=O)[C@H](CC(C)C)N(C)C(=O)CN(C)C(=O)[C@H]([C@@H](C)O)NC(=O)[C@H](CC(C)C)N(C)C(=O)[C@@H]1Cc1ccccc1 [DP-637] ([dNMeA]L[NMeL][NMeF]A[NEtPhe][NMeL]T[Sar][NMeL]D-Piperidide; lactam N-11) gave a microsomal CLint at 1 uM of 56 µL/min/mg.
CC[C@H](C)[C@H]1C(=O)N(C)[C@@H](CC(C)C)C(=O)N[C@H](C(=O)N2CCCCC2)CC(=O)N(C)CC(=O)N[C@@H](CC(C)C)C(=O)N[C@@H]([C@@H](C)O)C(=O)N(C)CC(=O)N(C)[C@@H](Cc2ccccc2)C(=O)N[C@@H](C)C(=O)N(CC)[C@@H](Cc2ccccc2)C(=O)N[C@@H](CC(C)C)C(=O)N1C [DP-638] ([Sar]LT[Sar][NMeF]A[NEtPhe]L[NMeI][NMeL]D-Piperidide; lactam N-11) gave a microsomal CLint at 1 uM of 47 µL/min/mg.
With CC[C@H](C)[C@@H]1NC(=O)[C@H](Cc2ccccc2)N(C)C(=O)[C@@H](C)NC(=O)C[C@@H](C(=O)N2CCCCC2)NC(=O)[C@H](C(C)C)NC(=O)CN(C)C(=O)[C@H]([C@@H](C)O)NC1=O [DP-674] ([dA][NMeF]IT[Sar]VD-Piperidide; lactam N-7) the microsomal CLint at 1 uM was 10 µL/min/mg.
Work on CC[C@H](C)[C@@H]1NC(=O)[C@H](CC(C)C)N(C)C(=O)CN(C)C(=O)[C@H](Cc2ccccc2)NC(=O)[C@H](C(C)C)N(C)C(=O)[C@H](C)N(C)C(=O)[C@H]([C@@H](C)O)NC(=O)[C@H](C)N(C)C(=O)C[C@@H](C(=O)N2CCCCC2)NC(=O)[C@H](C)NC1=O [DP-675] ([NMeA]T[NMeA][NMeV]F[Sar][NMeL]IAD-Piperidide; lactam N-10) yielded a microsomal CLint at 1 uM of 22 µL/min/mg.
Compound CC[C@H](C)[C@@H]1NC(=O)[C@H](Cc2ccccc2)N(C)C(=O)[C@H](CCc2ccccc2)NC(=O)[C@H](C(C)C)N(C)C(=O)[C@H](CC(C)C)N(C)C(=O)[C@H](CC(C)C)NC(=O)[C@@H](C)NC(=O)C[C@@H](C(=O)N2CCCCC2)NC(=O)[C@H]([C@@H](C)O)NC(=O)[C@H](C)NC(=O)[C@H](C)N(C)C1=O [DP-730] ([dA]L[NMeL][NMeV][hPhe][NMeF]I[NMeA]ATD-Piperidide; lactam N-11) has a microsomal CLint at 1 uM of 50 µL/min/mg.
In the case of C=C1CCC(=O)N(C)[C@@H](Cc2ccccc2)C(=O)N(C)CC(=O)N(C)[C@@H](CC(C)C)C(=O)N[C@@H]([C@@H](C)O)C(=O)N(C)[C@@H](C)C(=O)N(C)[C@@H](CC(C)C)C(=O)N(C)[C@@H]([C@@H](C)CC)C(=O)N[C@@H](COC(C)(C)C)C(=O)N[C@H](C(=O)N2CCCCC2)Cc2ccc1cc2 [DP-830], the microsomal CLint at 1 uM was 321 µL/min/mg.
CC[C@H](C)[C@H]1C(=O)N[C@@H](COC(C)(C)C)C(=O)N[C@H](C(=O)N2CCCCC2)Cc2ccc(cc2)CCCCCC(=O)N(C)[C@@H](Cc2ccccc2)C(=O)N(C)CC(=O)N(C)[C@@H](CC(C)C)C(=O)N[C@@H]([C@@H](C)O)C(=O)N(C)[C@@H](C)C(=O)N(C)[C@@H](CC(C)C)C(=O)N1C [DP-832] ([NMeF][Sar][NMeL]T[NMeA][NMeL][NMeI]S(tBu)[Phe(4-(CH2)5CO)]-Piperidide; lactam N-9) showed a microsomal CLint at 1 uM of 850 µL/min/mg.
With C=C1CCC(=O)N(C)[C@@H](Cc2ccccc2)C(=O)N(C)[C@@H](CC(C)C)C(=O)N[C@@H]([C@@H](C)CC)C(=O)N(C)[C@@H](C)C(=O)N(C)[C@@H](Cc2ccccc2)C(=O)N[C@@H]([C@@H](C)O)C(=O)N(C)[C@@H](C)C(=O)N(C)[C@@H](CC(C)C)C(=O)N[C@H](C(=O)N2CCCCC2)Cc2ccc1cc2 [DP-833] the microsomal CLint at 1 uM was 427 µL/min/mg.
CC[C@H](C)[C@@H]1NC(=O)[C@H](CC(C)C)N(C)C(=O)[C@H](Cc2ccccc2)N(C)C(=O)CCCCCc2ccc(cc2)C[C@@H](C(=O)N2CCCCC2)NC(=O)[C@H](CC(C)C)N(C)C(=O)[C@H](C)N(C)C(=O)[C@H]([C@@H](C)O)NC(=O)[C@H](Cc2ccccc2)N(C)C(=O)[C@H](C)N(C)C1=O [DP-835] ([NMeF][NMeL]I[NMeA][NMeF]T[NMeA][NMeL][Phe(4-(CH2)5CO)]-Piperidide; lactam N-9) gave a microsomal CLint at 1 uM of 497 µL/min/mg.
In the case of CC(C)C[C@H]1C(=O)N[C@@H](COC(C)(C)C)C(=O)N(C)[C@@H](CC(C)C)C(=O)N[C@H](C(=O)N2CCCCC2)Cc2ccc(cc2)CCCCCC(=O)N(C)[C@@H](C)C(=O)N(C)[C@@H](Cc2ccccc2)C(=O)N(C)[C@@H](CC(C)C)C(=O)N[C@@H]([C@@H](C)O)C(=O)N(C)CC(=O)N1C [DP-837] ([NMeA][NMeF][NMeL]T[Sar][NMeL]S(tBu)[NMeL][Phe(4-(CH2)5CO)]-Piperidide; lactam N-9), the microsomal CLint at 1 uM was 284 µL/min/mg.
For C=C1CCC(=O)N[C@@H](COC(C)(C)C)C(=O)N(CCC)CC(=O)N(C)[C@@H](CC(C)C)C(=O)N[C@@H]([C@@H](C)O)C(=O)N(C)[C@@H](Cc2ccccc2)C(=O)N(C)[C@@H](CC(C)C)C(=O)N(C)[C@@H]([C@@H](C)CC)C(=O)N(C)[C@@H](C)C(=O)N[C@H](C(=O)N2CCCCC2)Cc2ccc1cc2 [DP-839], the microsomal CLint at 1 uM was 91 µL/min/mg.
In the case of CC[C@H](C)[C@@H]1NC(=O)[C@H](C)N(C)C(=O)CCCCCc2ccc(cc2)C[C@@H](C(=O)N2CCCCC2)NC(=O)[C@H](CC(C)C)N(C)C(=O)[C@H](CC(C)C)N(C)C(=O)[C@H](C)N(C)C(=O)[C@H]([C@@H](C)O)NC(=O)[C@H](Cc2ccccc2)N(C)C(=O)[C@H](Cc2ccccc2)N(C)C1=O [DP-841] ([NMeA]I[NMeF][NMeF]T[NMeA][NMeL][NMeL][Phe(4-(CH2)5CO)]-Piperidide; lactam N-9), the microsomal CLint at 1 uM was 386 µL/min/mg.
For CC(C)C[C@@H]1NC(=O)[C@H](Cc2ccccc2)NC(=O)[C@H](CC(C)C)N(C)C(=O)[C@H](Cc2ccccc2)NC(=O)CCCCCc2ccc(cc2)C[C@@H](C(=O)N2CCCCC2)NC(=O)[C@H](Cc2ccccc2)N(C)C(=O)CNC(=O)[C@H]([C@@H](C)O)NC(=O)[C@H](CC(C)C)NC1=O [DP-842] (F[NMeL]FLLTG[NMeF][Phe(4-(CH2)5CO)]-Piperidide; lactam N-9), the microsomal CLint at 1 uM was 135 µL/min/mg.
Work on C=C1CCC(=O)N(C)[C@@H](Cc2ccccc2)C(=O)N(C)[C@@H](CC(C)C)C(=O)N[C@@H]([C@@H](C)O)C(=O)N(C)[C@@H](C)C(=O)NCC(=O)N(C)[C@@H](CC(C)C)C(=O)N(C)[C@@H](CC(C)C)C(=O)N(C)[C@@H](CC(C)C)C(=O)N[C@H](C(=O)N2CCCCC2)Cc2ccc1cc2 [DP-845] yielded a microsomal CLint at 1 uM of 248 µL/min/mg.
CC[C@H](C)[C@@H]1NC(=O)[C@H](C)N(C)C(=O)CCCCc2cccc(c2)C[C@@H](C(=O)N2CCCCC2)NC(=O)[C@H](CC(C)C)N(C)C(=O)[C@H](C)N(C)C(=O)[C@H]([C@@H](C)O)NC(=O)[C@H](Cc2ccccc2)N(C)C(=O)[C@H](Cc2ccccc2)N(C)C(=O)[C@H](CC(C)C)N(C)C1=O [DP-849] ([NMeA]I[NMeL][NMeF][NMeF]T[NMeA][NMeL][Phe(3-(CH2)4CO)]-Piperidide; lactam N-9) gave a microsomal CLint at 1 uM of 202 µL/min/mg.
